Data from paper PMC3809593 (BioMed Research International, 2013).
“And” between values parts separate entries of the source, which are not always exact repeats. Equal values may be shown once. “Also recorded” adds a separate entry of the source. Ends that are not written are not given here.

Key:
[1] = tested on: M14K (human mesothelioma) tumour cell line; assay: PE Annexin V / 7-AAD flow cytometry apoptosis assay; type: cell-based; conditions: for Q1 (7-AAD+) dead cells / Q2 (7-AAD+ Annexin V+) late apoptotic cells / Q4 (Annexin V+ 7AAD−) early apoptotic cells: 72 h in RPMI, 5000 events/well; for Q1 (7-AAD+) dead cells: negative control 2.1; for Q2 (7-AAD+ Annexin V+) late apoptotic cells: negative control 3.8; for Q4 (Annexin V+ 7AAD−) early apoptotic cells: negative control 4.5
Procedure: (§1) We analysed the cytotoxicity of the peptide chosen for our study in relation to two adherent tumour cell lines: MDA-MB-231 (breast adenocarcinoma) and M14K (human mesothelioma). These lines were cultivated in the same conditions as those used for the optimization of the number of target cells. The negative control was represented by target cells incubated without peptide. Viability was analysed after 72 h of incubation at 37°C, 5% CO2, by two methods: MTT colorimetric assay [3-(4,5-dimethylthiazol-2-yl)-2,5-diphenyltetrazolium bromide] and flow cytometry using PE Annexin V (BD Pharmingen) and 7-AAD (7-aminoactinomycin D).
(§2) PE Annexin V and 7-AAD (7-Aminoactinomycin D) (BD Pharmingen) Viability Assay. This assay was used to detect and measure the apoptotic process by means of flow cytometry. Apoptosis is characterized by cell morphology changes, nuclear condensation, pyknosis, and also by a series of biochemical events causing mitochondrial membrane and nuclear DNA degradation. Phosphatidylserine, which is normally present in the inner layer of the lipid bilayer of the cell membrane, is exposed at the surface of the cells undergoing various stages of apoptosis. Annexin V has great affinity to phosphatidylserine residue, and 7-AAD was used as vital nuclear DNA stain. 96-well cell culture plates were used in our study. The first (1) and last (12) columns of wells only contained culture medium (RPMI 1640) in order to prevent the edge effect. Columns 2 and 11 of wells only contained peptide-free cell suspension (negative control). Columns 3–10 contained target cells and consecutive peptide dilutions. We worked in triplicate for the two cell lines and all the peptide concentrations we used. After 72 h of incubation at 37°C, 5% CO2, adherent cells were detached by trypsination (3–10 minutes of incubation at 37°C with Eurobio trypsin). The cell suspension was distributed in such a manner that each FACS tube had 1 × 10^5 cells. 3 FACS tubes were assessed; the first FACS tube contained unmarked cells, the second FACS tube contained Annexin V PE, and the third FACS tube contained Annexin V PE/7-AAD. Data collection and interpretation were done on a FACS Canto II flow cytometer using the FACSDiva Software (Becton Dickinson) (Figure 3).

[2] = at its effective antimicrobial concentrations; cited from earlier work
Description: This peptide is water soluble and nonhaemolytic at its effective and amphiphilic antimicrobial concentrations. At small concentrations, it inhibits the growth of numerous species of bacteria and fungi, and it induces osmotic lysis in protozoa ...

[3] = tested on: MDA-MB-231 (breast adenocarcinoma) tumour cell line; assay: PE Annexin V / 7-AAD flow cytometry apoptosis assay; type: cell-based, human; conditions: MDA-MB231, 72 h in RPMI, 5000 events/well; for Q1—dead cells (7-AAD+): negative control 1.8; for Q2—late apoptosis cells (7-AAD+ Annexin V+): negative control 3; for Q4—early apoptosis cells (Annexin V+ 7-AAD−): negative control 4.7; for Q3—living cells (7-AAD− Annexin V−): negative control 90.5
Procedure: as §1, §2
Flow cytometry allowed apoptosis assessment for the MDA-MB-231 cell line incubated with the […]. 5000 events/well were acquired, and the results were compared with the viability of the peptide-free cells (negative control).

[4] = tested on: M14K (human mesothelioma) tumour cell line; assay: MTT viability assay (cytostasis %); type: cell-based; conditions: 72 h incubation in RPMI, mean of three absorbance readings
Procedure: (§3) Consecutive peptide dilutions with RPMI 1640 (Sigma Aldrich) were used, whereas the working concentrations were 120 μM, 60 μM, 30 μM, 15 μM, 7.5 μM, 3.5 μM, 1.8 μM, and 0.9 μM in a final volume of 200 μL/well. […] Everything was treated in a sterile fashion.
as §1
(§4) [3-(4,5-Dimethylthiazol-2-yl)-2,5-diphenyltetrazolium Bromide] […] Absorbance was measured at 570 nm against a 620 nm reference wavelength using a Tecan Sunrise plate reader. Relying on the absorbance values read in the cells incubated with the peptide studied (A peptide cells) and depending on the absorbance value read in peptide-free cells (A negative control), we calculated the cytostasis percentage, that is, the percentage of cells affected by apoptosis of the whole number of cells in any of the wells analysed. […]

[5] = tested on: MDA-MB-231 (breast adenocarcinoma) tumour cell line; assay: MTT viability assay (cytostasis %); type: cell-based, human; conditions: MDA-MB-231, 72 h incubation in RPMI, mean of three absorbance readings
Procedure: as §3, §1, §4

[6] = cited from earlier work
Description: This peptide is water soluble and nonhaemolytic at its effective and amphiphilic antimicrobial concentrations. At small concentrations, it inhibits the growth of numerous species of bacteria and fungi, and it induces osmotic lysis in protozoa ... || According to the product specifications, this peptide is soluble in distilled water with 0.1% TFA. As the solution is meant to be inserted into cell culture medium, we have chosen RPMI as the most suitable medium. This medium also allowed us to maintain an optimum pH (7.2–7.4) as we inserted the peptide solution. The extemporaneous peptide solution was utilized immediately after preparation.

MCF7 tumour cell line = conditions: cited from earlier work
Description: MDA-MB-231 is an adherent breast adenocarcinoma cell line, one of the three known breast cancer cell lines: MCF-7, MDA-MB-231, and T-47D [18, 19].

Sequence: GIGKFLHSAKKFGKAFVGEIMNS [Magainin II]
- Q1 (7-AAD+) dead cells ([1]; 60 μM peptide): 0.3%
- Q2 (7-AAD+ Annexin V+) late apoptotic cells ([1]; 60 μM peptide): 8.6%
- Q4 (Annexin V+ 7AAD−) early apoptotic cells ([1]; 60 μM peptide): 5.9%
- Q1 (7-AAD+) dead cells ([1]; 120 μM peptide): 2.8%
- Q2 (7-AAD+ Annexin V+) late apoptotic cells ([1]; 120 μM peptide): 47.8%
- Q4 (Annexin V+ 7AAD−) early apoptotic cells ([1]; 120 μM peptide): 13.5%
- cell population that underwent apoptosis ([1]; 72 h, flow cytometry PE Annexin V/7-AAD, concentration not stated in the sentence (values match 120 μM)): over 50%
- haemolysis [2]: nonhaemolytic
- Q1—dead cells (7-AAD+) ([3]; 60 μM peptide): 0.8%
- Q2—late apoptosis cells (7-AAD+ Annexin V+) ([3]; 60 μM peptide): 19.6%
- Q4—early apoptosis cells (Annexin V+ 7-AAD−) ([3]; 60 μM peptide): 3.4%
- Q3—living cells (7-AAD− Annexin V−) ([3]; 60 μM peptide): 76.2%
- Q1—dead cells (7-AAD+) ([3]; 120 μM peptide): 1.4%
- Q2—late apoptosis cells (7-AAD+ Annexin V+) ([3]; 120 μM peptide): 47.5%
- Q4—early apoptosis cells (Annexin V+ 7-AAD−) ([3]; 120 μM peptide): 14.8%
- Q3—living cells (7-AAD− Annexin V−) ([3]; 120 μM peptide): 36.3%
- cytostasis % (MTT test) ([4]; 15 μM peptide): absent
- cytostasis % (MTT test) ([4]; 30 μM peptide): significantly lower
- cytostasis % (MTT test) ([5]; 15 μM peptide): absent
- cytostasis % (MTT test) ([5]; 30 μM peptide): persisted; also recorded: significantly lower
- solubility in water [6]: water soluble
- solubility ([6]; distilled water with 0.1% TFA, ref product specifications (SIGMA M7402-1MG)): soluble
- concentration with cytotoxic effect (MCF7 tumour cell line): exceed 200 μg/mL and > 80 μM
